In PubChem BioAssay AID330 (DTP/NCI, 2004):
Values joined by “and” are separate entries in the source; they are usually repeats but may differ in a detail not shown here. Equal entries are not always repeated. Inconclusive results and toxic doses are left out. Rule for the calls: active = survival T/C of 150% or more; inactive = T/C below 125% in these data.

Tested on: P388 leukemia ip, CD2F1 mice, survival T/C
Experiment: NCI In Vivo Anticancer Drug Screen. Data for tumor model P388 Leukemia (intraperitoneal) in CD2F1 (CDF1) mice
Conditions: endpoint: median survival time, higher = longer survival
Outline: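 Mice carrying the transplanted tumor received test compound or vehicle. Survival was recorded in each group, and the value is the treated-group measurement divided by that of the vehicle-treated control group.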

[1] = dose: 60.0 mg/kg/injection, schedule: Q01DX005 (ip), vehicle: saline with Tween-80
[2] = dose: 120.0 mg/kg/injection, schedule: Q01DX005 (ip), vehicle: saline with Tween-80
[3] = dose: 240.0 mg/kg/injection, schedule: Q01DX005 (ip), vehicle: saline with Tween-80
[4] = dose: 50.0 mg/kg/injection, schedule: Q01DX005 (ip), vehicle: saline with Tween-80
[5] = dose: 25.0 mg/kg/injection, schedule: Q01DX009 (ip), vehicle: other
[6] = dose: 50.0 mg/kg/injection, schedule: Q01DX009 (ip), vehicle: other
[7] = dose: 100.0 mg/kg/injection, schedule: Q01DX009 (ip), vehicle: other
[8] = dose: 200.0 mg/kg/injection, schedule: Q01DX009 (ip), vehicle: other
[9] = dose: 100.0 mg/kg/injection, schedule: Q01DX001 (ip), vehicle: Klucel (hydroxypropylcellulose) (HPC)
[10] = dose: 200.0 mg/kg/injection, schedule: Q01DX001 (ip), vehicle: Klucel (hydroxypropylcellulose) (HPC)

Measured: T/C

CCCCCCCCCCCCCCCCSc1nc2ccc(N=Cc3ccccc3O)cc2s1
inactive: dose: 100.0 mg/kg/injection, schedule: Q04DX003 (ip), vehicle: Klucel (hydroxypropylcellulose) (HPC) 92 % of control | dose: 200.0 mg/kg/injection, schedule: Q04DX003 (ip), vehicle: Klucel (hydroxypropylcellulose) (HPC) 90 % of control | dose: 400.0 mg/kg/injection, schedule: Q04DX003 (ip), vehicle: Klucel (hydroxypropylcellulose) (HPC) 91 % of control

COc1ccc(C(CC(=O)O)CC(=O)c2ccc(N(CCCl)CCCl)cc2)cc1 (stereo not given)
inactive: dose: 100.0 mg/kg/injection, schedule: Q01DX001 (ip), vehicle: suspension in saline 98 % of control | dose: 200.0 mg/kg/injection, schedule: Q01DX001 (ip), vehicle: suspension in saline 99 % of control

COc1ccc(C2c3cc4c(cc3OC(C)(N3CCCC3)C2C)OCO4)c(OC)c1OC (stereo not given)
inactive: [1] 100 % of control | [2] 95 % of control | [3] 96 % of control

Nc1ccc(S(=O)(=O)n2c(=O)oc3cc(Br)ccc32)cc1
inactive: dose: 25.0 mg/kg/injection, schedule: Q04DX002 (ip), vehicle: Klucel (hydroxypropylcellulose) (HPC) 99 % of control | dose: 50.0 mg/kg/injection, schedule: Q04DX002 (ip), vehicle: Klucel (hydroxypropylcellulose) (HPC) 99 % of control | dose: 100.0 mg/kg/injection, schedule: Q04DX002 (ip), vehicle: Klucel (hydroxypropylcellulose) (HPC) 100 % of control and 93 % of control

CCCn1c(C)nc2c(N)cc(Cl)cc21
inactive: dose: 12.5 mg/kg/injection, schedule: Q01DX005 (ip), vehicle: Klucel (hydroxypropylcellulose) (HPC) 99 % of control | dose: 25.0 mg/kg/injection, schedule: Q01DX005 (ip), vehicle: Klucel (hydroxypropylcellulose) (HPC) 95 % of control | dose: 50.0 mg/kg/injection, schedule: Q01DX005 (ip), vehicle: Klucel (hydroxypropylcellulose) (HPC) 103 % of control | dose: 100.0 mg/kg/injection, schedule: Q01DX005 (ip), vehicle: Klucel (hydroxypropylcellulose) (HPC) 105 % of control

Cc1ccc(NC(=O)CC(=O)CC(C)C)cc1C
inactive: [4] 107 % of control | [2] 113 % of control | [3] 114 % of control

c1ccc(-n2nc3c(c2-c2ccncc2)CCCc2ccccc2-3)cc1
inactive: dose: 12.5 mg/kg/injection, schedule: Q01DX009 (ip), vehicle: other 96 % of control | [5] 98 % of control | [6] 120 % of control | [7] 110 % of control | [8] 96 % of control

Nc1ncnc2[nH]c(=S)[nH]c12
inactive: dose: 1.56 mg/kg/injection, schedule: Q01DX005 (ip), vehicle: Klucel (hydroxypropylcellulose) (HPC) 110 % of control | dose: 3.12 mg/kg/injection, schedule: Q01DX005 (ip), vehicle: Klucel (hydroxypropylcellulose) (HPC) 94 % of control | dose: 6.25 mg/kg/injection, schedule: Q01DX005 (ip), vehicle: Klucel (hydroxypropylcellulose) (HPC) 99 % of control and 97 % of control

COc1ccc(S(=O)(=O)NN)cc1
inactive: [5] 106 % of control | [6] 103 % of control | [7] 104 % of control | [8] 106 % of control

CCCCCC(=O)/C=C/C1=C(N2CCCC2)CN(C(=O)OCC)C1
inactive: dose: 60.0 mg/kg/injection, schedule: Q01DX005 (ip), vehicle: Klucel (hydroxypropylcellulose) (HPC) 86 % of control | dose: 120.0 mg/kg/injection, schedule: Q01DX005 (ip), vehicle: Klucel (hydroxypropylcellulose) (HPC) 89 % of control | dose: 240.0 mg/kg/injection, schedule: Q01DX005 (ip), vehicle: Klucel (hydroxypropylcellulose) (HPC) 91 % of control

O=C1OC2(c3ccccc31)c1cc(I)c(O)c(I)c1Oc1c2cc(I)c(O)c1I
inactive: dose: 100.0 mg/kg/injection, schedule: Q04DX003 (ip), vehicle: saline with Tween-80 91 % of control | dose: 200.0 mg/kg/injection, schedule: Q04DX003 (ip), vehicle: saline with Tween-80 95 % of control

Cc1cc(NC(=S)SCc2ccc(Cl)cc2)ccc1F
inactive: dose: 50.0 mg/kg/injection, schedule: Q01DX009 (ip), vehicle: suspension in saline 109 % of control | dose: 100.0 mg/kg/injection, schedule: Q01DX009 (ip), vehicle: suspension in saline 100 % of control | dose: 200.0 mg/kg/injection, schedule: Q01DX009 (ip), vehicle: suspension in saline 94 % of control

CC(=O)OCc1ccc[n+]([O-])c1
inactive: dose: 25.0 mg/kg/injection, schedule: Q01DX009 (ip), vehicle: saline 99 % of control and 96 % of control | dose: 50.0 mg/kg/injection, schedule: Q01DX009 (ip), vehicle: saline 99 % of control and 103 % of control | dose: 100.0 mg/kg/injection, schedule: Q01DX009 (ip), vehicle: saline 99 % of control and 103 % of control | dose: 200.0 mg/kg/injection, schedule: Q01DX009 (ip), vehicle: saline 99 % of control and 86 % of control | dose: 400.0 mg/kg/injection, schedule: Q01DX009 (ip), vehicle: saline 99 % of control and 109 % of control

[N-]=[N+]=Nc1ccc2nc(N)nc(N)c2c1
inactive: [9] 99 % of control | [10] 100 % of control

CCCCCCCCOCC(=O)OC
inactive: dose: 50.0 mg/kg/injection, schedule: Q01DX009 (ip), vehicle: saline with Tween-80 106 % of control | dose: 100.0 mg/kg/injection, schedule: Q01DX009 (ip), vehicle: saline with Tween-80 107 % of control | dose: 200.0 mg/kg/injection, schedule: Q01DX009 (ip), vehicle: saline with Tween-80 101 % of control

O=C1CCCC2OC12 (stereo not given)
inactive: dose: 100.0 mg/kg/injection, schedule: Q04DX002 (ip), vehicle: saline 110 % of control | dose: 200.0 mg/kg/injection, schedule: Q04DX002 (ip), vehicle: saline 112 % of control

CC1C2COCC2CC2OC21 (stereo not given)
inactive: dose: 6.25 mg/kg/injection, schedule: Q01DX001 (ip), vehicle: saline with Tween-80 109 % of control | dose: 12.5 mg/kg/injection, schedule: Q01DX001 (ip), vehicle: saline with Tween-80 100 % of control | dose: 25.0 mg/kg/injection, schedule: Q01DX001 (ip), vehicle: saline with Tween-80 104 % of control

O=C(O)C(=O)O.[U]
inactive: dose: 12.5 mg/kg/injection, schedule: Q01DX009 (ip), vehicle: saline with Tween-80 100 % of control

O=C(NN(Cn1c(=S)sc2ccccc21)Cn1c(=S)sc2ccccc21)c1cccc([N+](=O)[O-])c1
inactive: [9] 93 % of control | [10] 92 % of control | dose: 400.0 mg/kg/injection, schedule: Q01DX001 (ip), vehicle: Klucel (hydroxypropylcellulose) (HPC) 113 % of control

O=c1cc[nH]c(=O)n1C1OC(CO)C(O)C1O (stereo not given)
inactive: dose: 50.0 mg/kg/injection, schedule: Q01DX005 (ip), vehicle: saline 108 % of control | dose: 100.0 mg/kg/injection, schedule: Q01DX005 (ip), vehicle: saline 99 % of control | dose: 200.0 mg/kg/injection, schedule: Q01DX005 (ip), vehicle: saline 102 % of control | dose: 400.0 mg/kg/injection, schedule: Q01DX005 (ip), vehicle: saline 98 % of control

CCC1(O)C[C@@]2(CCCCC2I)OC1=O (stereo not given in full)
inactive: [4] 100 % of control | dose: 100.0 mg/kg/injection, schedule: Q01DX005 (ip), vehicle: saline with Tween-80 103 % of control | dose: 200.0 mg/kg/injection, schedule: Q01DX005 (ip), vehicle: saline with Tween-80 106 % of control

CC(C)NC(=O)OCc1c(COC(=O)NC(C)C)c(S(=O)c2ccccc2)n2c1CCC2 (stereo not given)
inactive: dose: 25.0 mg/kg/injection, schedule: Q01DX005 (ip), vehicle: distilled water + Tween-80 113 % of control | dose: 50.0 mg/kg/injection, schedule: Q01DX005 (ip), vehicle: distilled water + Tween-80 110 % of control | dose: 100.0 mg/kg/injection, schedule: Q01DX005 (ip), vehicle: distilled water + Tween-80 113 % of control

CCC/C=C/C=C\C(=O)O[C@@H]1[C@@H](C)[C@]2(O)[C@@H]3C=C(C)C(=O)[C@H]3CC(COC(C)=O)=C[C@H]2[C@@H]2C(C)(C)[C@]12OC(C)=O
inactive: dose: 0.38 mg/kg/injection, schedule: Q01DX005 (ip), vehicle: saline + alcohol 123 % of control and 92 % of control | dose: 0.38 mg/kg/injection, schedule: Q01DX005 (ip), vehicle: saline with Tween-80 100 % of control | dose: 0.75 mg/kg/injection, schedule: Q01DX005 (ip), vehicle: saline with Tween-80 105 % of control | dose: 1.5 mg/kg/injection, schedule: Q01DX005 (ip), vehicle: saline with Tween-80 103 % of control | dose: 3.0 mg/kg/injection, schedule: Q01DX005 (ip), vehicle: saline with Tween-80 117 % of control

CCC(=NCCCCCCN=C(CC)c1cc(C)cc([N+](=O)[O-])c1O)c1cc(C)cc([N+](=O)[O-])c1O.[Fe]
inactive: [1] 90 % of control | [2] 86 % of control | [3] 94 % of control
